{
  "source": "patent US10744141B2",
  "about": "“Compositions and methods for treating cancer” (CASE WESTERN RESERVE UNIVERSITY, priority 2015, dated 2020)",
  "key": {"PP2A A-C dimer": {"target": "PP2A A-C dimer (Homo sapiens, UniProt P30153+P67775)", "sequence (P30153 whole entry)": "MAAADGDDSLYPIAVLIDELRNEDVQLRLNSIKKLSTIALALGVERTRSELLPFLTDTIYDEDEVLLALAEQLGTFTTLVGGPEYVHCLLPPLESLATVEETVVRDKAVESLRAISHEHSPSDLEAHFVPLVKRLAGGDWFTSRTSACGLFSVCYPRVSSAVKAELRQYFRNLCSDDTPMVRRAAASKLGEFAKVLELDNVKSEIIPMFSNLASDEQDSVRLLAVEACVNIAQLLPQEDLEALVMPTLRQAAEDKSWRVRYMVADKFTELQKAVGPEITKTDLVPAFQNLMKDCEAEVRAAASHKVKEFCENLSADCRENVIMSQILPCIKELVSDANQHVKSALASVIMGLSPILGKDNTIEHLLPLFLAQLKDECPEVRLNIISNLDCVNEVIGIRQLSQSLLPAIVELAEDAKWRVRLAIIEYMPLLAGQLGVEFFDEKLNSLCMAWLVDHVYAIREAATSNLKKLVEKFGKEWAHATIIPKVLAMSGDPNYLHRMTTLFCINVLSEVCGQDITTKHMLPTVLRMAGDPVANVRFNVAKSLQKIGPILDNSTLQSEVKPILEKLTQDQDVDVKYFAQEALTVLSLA", "sequence (P67775 whole entry)": "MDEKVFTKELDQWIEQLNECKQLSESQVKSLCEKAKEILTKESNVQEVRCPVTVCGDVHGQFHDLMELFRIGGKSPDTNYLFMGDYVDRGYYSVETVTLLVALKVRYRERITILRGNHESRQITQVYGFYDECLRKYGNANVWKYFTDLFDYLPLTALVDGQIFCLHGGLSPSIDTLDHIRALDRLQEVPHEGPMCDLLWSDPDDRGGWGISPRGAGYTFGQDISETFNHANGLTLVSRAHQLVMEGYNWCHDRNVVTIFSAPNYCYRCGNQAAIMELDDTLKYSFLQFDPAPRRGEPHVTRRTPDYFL", "assay": "Radiolytic MS footprinting of PP2A A-C dimer with and without Compound 1", "from_the_text": "FIG. 2 is a model illustrating a visual representation of conformational changes in the PP2A A-C dimer as detected by radiolytic MS footprinting.\nIn order to elucidate the conformational changes in PP2A induced by SMAPs, we conducted structural mass spectrometry using radiolytic MS footprinting, a novel approach to probe the structural alterations of complexes such as PP2A. In these experiments, hydroxyl radicals are generated by an X-ray beam and oxidatively modify solvent-exposed amino acid side chains. Areas of a protein that are solvent inaccessible are spared these modifications and can be considered protected regions. Compared to the PP2A A-C dimer alone, addition of Compound 1 induced significant changes in solvent exposure in both the A and C subunits, indicating a conformational change (FIG. 2)."}, "MOLT4": {"tested_on": "MOLT4", "assay": "Western blot time course of Y307 dephosphorylation and target engagement", "format": "cell-based", "conditions": "MOLT4, increasing doses, various timepoints", "experimental": "FIG. 3 illustrates a western blot analysis showing the kinetics of Y307 dephosphorylation and target engagement induced by Compound 1.\nTo evaluate the kinetics of Y307 dephosphorylation in the context of SMAP-mediated phosphatase activation, a time course study was conducted in the c-Myc driven T-ALL cell line MOLT4 with increasing doses of Compound 1 at various timepoints. PP2A has been well established to dephosphorylate the c-Myc proto-oncogene via dephosphorylation at Serine62 as a priming event for proteasome-mediated degradation, and prior work in the lab has validated Compound 1 mediates c-Myc proteolysis in in vitro models of c-Myc driven disease."}, "A549": {"tested_on": "A549", "assay": "MTT assay with Compound 2/Dasatinib dose escalation combinations", "format": "cell-based", "conditions": "dose escalation of both drugs in parallel"}, "ERK": {"tested_on": "ERK", "assay": "Time course phosphoproteomics with KSEA, ERK output", "format": "cell-based", "conditions": "H358 cells, 17.5 μM DT-061, relative to DMSO at the same time-point", "experimental": "(§1) H358 cells (ATCC) were cultured at 37° C. and 5% CO2 using RPMI media supplemented with 10% FBS and 0.5% penicillin/streptomycin. Per condition, 20 million cells were treated with the appropriate reagent and harvested at the stated time point. The following are the doses used: 17.5 μM DT-061, 1 μM AZD6244, and 0.25 μM MK2206. Cell pellets were then stored at −80° C. for short term. To extract proteins, the cells were pulse sonicated in 2% SDS buffer over ice and in the presence of protease and phosphatase inhibitors. Cysteine amino acid residues were then reduced and alkylated. 800 μg of protein per sample was then digested with Lys-C and Trypsin overnight at 37° C. […]\n(§2) The phospho-enriched peptides were analyzed by LC-MS/MS using a LTQ-Orbitrap Velos mass spectrometer (Thermo Scientific, Calif.) equipped with a nanoAcquity™ Ultra-high pressure liquid chromatography system (Waters, Mass.). […] The LC-MS/MS raw files were imported and analyzed by the Rosetta Elucidator™ and Mascot programs to sequence the peptides and to identify the parent protein.\n(§3) The R programming language was used to generate the data and heat maps. […] Kinase-substrate relationships were determined from the PhosphoSitePlus database. […] The fold change (FC) for each identified hit was then calculated by taking the median peptide intensity with treatment, divided by median peptide intensity with DMSO. […]"}, "SRC": {"tested_on": "SRC", "assay": "Time course phosphoproteomics with KSEA, SRC output", "format": "cell-based", "conditions": "H358 cells, 17.5 μM DT-061, relative to DMSO at the same time-point", "experimental": "as §1, §2, §3"}, "[1]": {"conditions": "C-terminal tail peptide [303-309]/C, residue Y or F"}, "[2]": {"conditions": "catalytic subunit peptide [178-186]/C, residue H179"}, "[3]": {"conditions": "peptide [198-217]/C, residue W200"}, "[4]": {"conditions": "peptide [200-217]/C, residue W209"}, "[5]": {"conditions": "peptide [200-223]/C, residue W200"}, "[6]": {"conditions": "peptide [200-223]/C, residue W209"}, "[7]": {"conditions": "peptide [200-223]/C, residue Y218"}, "[8]": {"conditions": "peptide [259-265]/C, residue Y265"}, "[9]": {"conditions": "peptide [279-286]/C, residue K283"}, "[10]": {"conditions": "peptide [279-286]/C, residue Y284"}},
  "note": "“Also recorded” adds a separate entry of the source.",
  "data": [
    {"molecule": "O=S(=O)(NC[C@H](O)CN1c2ccccc2CCc2ccccc21)c1ccc(OC(F)(F)F)cc1", "note": "[Compound 1]", "values": [
      {"measurement": "Modification Rate, S^−1 + Ligand", "setting": "PP2A A-C dimer; [1]", "value": "0.56 ± 0.06", "unit": "S^−1"},
      {"measurement": "Protection factor", "setting": "PP2A A-C dimer; [1]", "value": 12.0},
      {"measurement": "decrease in solvent accessibility of the C terminal tail of the catalytic subunit", "setting": "PP2A A-C dimer; Compound 1 treatment compared to control", "value": 12, "unit": "fold"},
      {"measurement": "Modification Rate, S^−1 + Ligand", "setting": "PP2A A-C dimer; [2]", "value": "2.4 ± 0.2", "unit": "S^−1"},
      {"measurement": "Protection factor", "setting": "PP2A A-C dimer; [2]", "value": 7.2},
      {"measurement": "Modification Rate, S^−1 + Ligand", "setting": "PP2A A-C dimer; [3]", "value": "1.8 ± 0.2", "unit": "S^−1"},
      {"measurement": "Protection factor", "setting": "PP2A A-C dimer; [3]", "value": 6.2},
      {"measurement": "Modification Rate, S^−1 + Ligand", "setting": "PP2A A-C dimer; [4]", "value": "2.3 ± 0.1", "unit": "S^−1"},
      {"measurement": "Protection factor", "setting": "PP2A A-C dimer; [4]", "value": 4.6},
      {"measurement": "Modification Rate, S^−1 + Ligand", "setting": "PP2A A-C dimer; [5]", "value": "1.4 ± 0.1", "unit": "S^−1"},
      {"measurement": "Protection factor", "setting": "PP2A A-C dimer; [5]", "value": 4.6},
      {"measurement": "Modification Rate, S^−1 + Ligand", "setting": "PP2A A-C dimer; [6]", "value": "2.1 ± 0.1", "unit": "S^−1"},
      {"measurement": "Protection factor", "setting": "PP2A A-C dimer; [6]", "value": 5.4},
      {"measurement": "Modification Rate, S^−1 + Ligand", "setting": "PP2A A-C dimer; [7]", "value": "0.31 ± 0.03", "unit": "S^−1"},
      {"measurement": "Protection factor", "setting": "PP2A A-C dimer; [7]", "value": 0.9},
      {"measurement": "Modification Rate, S^−1 + Ligand", "setting": "PP2A A-C dimer; [8]", "value": "0.12 ± 0.001", "unit": "S^−1"},
      {"measurement": "Protection factor", "setting": "PP2A A-C dimer; [8]", "value": 4.8},
      {"measurement": "Modification Rate, S^−1 + Ligand", "setting": "PP2A A-C dimer; [9]", "value": "0.14 ± 0.01", "unit": "S^−1"},
      {"measurement": "Protection factor", "setting": "PP2A A-C dimer; [9]", "value": 15},
      {"measurement": "Modification Rate, S^−1 + Ligand", "setting": "PP2A A-C dimer; [10]", "value": "0.13 ± 0.01", "unit": "S^−1"},
      {"measurement": "Protection factor", "setting": "PP2A A-C dimer; [10]", "value": 6.1},
      {"measurement": "Parp cleavage", "setting": "MOLT4", "value": "resulting in Parp cleavage in a similar time-dependent manner"},
      {"measurement": "Y307 dephosphorylation kinetics", "setting": "MOLT4", "value": "Y307 dephosphorylation occurs as a secondary event to the initial PP2A activation; also recorded: precede Y307 dephosphorylation"},
      {"measurement": "dephosphorylation of c-Myc", "setting": "MOLT4", "value": "very rapid dephosphorylation of c-Myc"}
    ]},
    {"molecule": "O=S(=O)(N[C@@H]1CCCC(N2c3ccccc3CCc3ccccc32)[C@H]1O)c1ccc(OC(F)(F)F)cc1", "note": "(stereo partly drawn) [Compound 2]", "values": [
      {"measurement": "decrease of the IC50 (GI50) of Compound 2", "setting": "A549", "value": "nearly two-fold"}
    ]},
    {"molecule": "O=S(=O)(N[C@@H]1CCC[C@H](N2c3ccccc3Oc3ccccc32)[C@H]1O)c1ccc(OC(F)(F)F)cc1", "note": "[DT-061]", "values": [
      {"measurement": "ERK activity output (KSEA)", "setting": "ERK", "value": "limited suppression of ERK output"},
      {"measurement": "SRC activity output (KSEA)", "setting": "SRC", "value": "minimal changes in SRC output"}
    ]}
  ]
}
